# Assay results: patent publication US20140243302A1, “BRIDGED BICYCLIC COMPOUNDS FOR THE TREATMENT OF BACTERIAL INFECTIONS” (priority 2011, published 2014)
# System: Staphylococcus aureus Smith
# Assay: MIC assay, modified agar dilution (CLSI), S. aureus Smith
# Type: cell-based
# Details: Staphylococcus aureus, agar dilution, 35° C., 16-20 hr; lowest concentration that completely inhibited growth; read-out: S_aureus_Smith_WT_MIC
# Protocol: The potency of antibacterial agents was measured using the Minimal Inhibitory Concentration (MIC) assay. The assay measures the ability of test agents to inhibit the growth of bacteria on agar-containing medium.
# The bacterial test strains used were exemplified by Staphylococcus aureus Smith, Enterococcus faecium A2373, Streptococcus pneumoniae IID554, and Escherichia coli ATCC 25922. All strains were maintained as frozen stocks held at −80° C. in skim milk. Other bacterial test strains are well known to those skilled in the art and can be used for testing.
# Mueller Hinton Agar (MHA BBL; Becton Dickinson and Company, Sparks, Md.) was used as the medium. MHA was supplemented with 5% defibrinated horse blood (DHB; Nippon Biotest Laboratories inc.) to support the growth of S. pneumoniae and E. faecium.
# MIC values were determined using a modified agar dilution procedure described by the Clinical and Laboratory Standards Institute (CLSI; Methods for Dilution Antimicrobial Susceptibility Tests for Bacteria That Grow Aerobically; Approved Standard—Eighth Edition. CLSI document M07-A8 [ISBN 1-56238-689-1]. Clinical and Laboratory Standards Institute, 940 West Valley Road, Suite 1400, Wayne, Pa. 19087-1898 USA, 2009).
# Stock solutions (6.4 mgmL) of test compounds were prepared in 100% ultrapure dimethyl sulfoxide (DMSO; source) on the day of the assay. Subsequent serial dilutions were performed to generate solutions with concentrations ranging from 6.4 to 0.0002 mgmL in 100% DMSO.
# Agar medium containing test compound was prepared by adding the dilutions of antimicrobial solution to molten MHA at a temperature of 45-50° C. The agar and antimicrobial solution were mixed thoroughly, poured into petri dishes, and allowed to solidify at room temperature. The final concentration of test compounds in the MHA medium ranged from 128 to 0.001 μg/mL with two-fold dilutions. MHA plates lacking antibacterial compound were used for growth controls.
# Prior to susceptibility testing, the bacterial isolates were removed from frozen storage, thawed at room temperature, sub-cultured to MHA medium and incubated overnight at 35° C. S. pneumoniae and E. faecium were subcultured on MHA supplemented with 5% DHB at 35° C. with […]. Colonies from each plate were suspended in normal saline. This suspension was adjusted to the turbidity of a 0.5 McFarland standard, 1-2×10^8 colony forming units (CFU) per mL, and diluted 100-fold to 1-2×10^6 CFUmL.
# Suspensions of bacterial cultures were applied to the surface of MHA plates containing test compound as well as to a growth control plate lacking test compound using an inoculum-replicating device with 4 mm pins. The replicating device applied 5 uL of the bacterial suspension such that each spot contained approx. 1×10^4 CFU. Plates were dried for about 40 min and incubated at 35° C. for 16-20 hr prior to scoring.
row,MIC [µg/mL],Structure (SMILES)
1,2,"COc1ccc2ncc(F)c(CCC34CCC(NCC5CCCCC5)(CC3)CO4)c2n1 [Example 70, N-(Cyclohexylmethyl)-1-(2-(3-fluoro-6-methoxy-1,5-naphthyridin-4-yl)ethyl)-2-oxabicyclo[2.2.2]octan-4-amine]"
2,0.06,"COc1ccc2ncc(F)c(C[C@H](O)C34CCC(NCc5cc6c(cn5)OCCO6)(CC3)CC4)c2n1.Cl (single isomer, unassigned) [Example 201]"
3,0.25,"COc1ccc2ncc(F)c(CCC34CCC(NC(=O)c5nc6c(cc5Cl)SCC(=O)N6)(CC3)CC4)c2n1 [Example 196, 7-Chloro-N-(4-(2-(3-fluoro-6-methoxy-1,5-naphthyridin-4-yl)ethyl)bicyclo[2.2.2]octan-1-yl)-3-oxo-3,4-dihydro-2H-pyrido[3,2-b][1,4]thiazine-6-carboxamide]"
4,> 16,"COc1ccc2ncc(F)c(CCC34CCC(NCc5cn(C)c(=O)n(C)c5=O)(CC3)CO4)c2n1 [Example 94, 5-((1-(2-(3-Fluoro-6-methoxy-1,5-naphthyridin-4-yl)ethyl)-2-oxabicyclo[2.2.2]octan-4-ylamino)methyl)-1,3-dimethylpyrimidine-2,4(1H,3H)-dione]"
5,2,"COc1ccc2ncc(F)c(CC(F)C34CCC(NCc5ccc6c(n5)NC(=O)CO6)(CC3)CO4)c2n1 (centres unmarked) [Example 157a, 6-[({1-[1-Fluoro-2-(3-fluoro-6-methoxy-1,5-naphthyridin-4-yl)ethyl]-2-oxabicyclo[2.2.2]oct-4-yl}amino)methyl]-2H-pyrido[3,2-b][1,4]oxazin-3(4H)-one]"
6,1,"COc1ccc2ncc(F)c(CCC34CCC(NCc5cc6c(nn5)OCC(=O)N6)(CC3)CO4)c2n1 [Example 177, 3-[({1-[2-(3-Fluoro-6-methoxy-1,5-naphthyridin-4-yl)ethyl]-2-oxabicyclo[2.2.2]oct-4-yl}amino)methyl]-5H-pyridazino [3,4-b][1,4]oxazin-6(7H)-one]"
7,0.063,"COc1ccc2ccc(F)c(CCC34CCC(NCc5ccc6c(n5)NC(=O)CO6)(CC3)CO4)c2n1 [Example 153, 6-((1-(2-(7-Fluoro-2-methoxyquinolin-8-yl)ethyl)-2-oxabicyclo[2.2.2]octan-4-ylamino)methyl)-2H-pyrido[3,2-b][1,4]oxazin-3(4H)-one]"
8,0.031,"COc1ccc2ncc(F)c(CC(O)C34CCC(NCc5ncc6c(n5)NC(=O)CO6)(CC3)CO4)c2n1 (centres unmarked) [Example 143, 2-((1-(2-(3-Fluoro-6-methoxy-1,5-naphthyridin-4-yl)-1-hydroxyethyl)-2-oxabicyclo[2.2.2]octan-4-ylamino)methyl)-6H-pyrimido[5,4-b][1,4]oxazin-7(8H)-one]"
9,0.25,"COc1ccc2ncc(F)c(CCC34CCC(NCc5ccc6c(n5)NC(=O)CO6)(CC3)C4)c2n1 [Example 12, 6-((4-(2-(3-Fluoro-6-methoxy-1,5-naphthyridin-4-yl)ethyl)bicyclo[2.2.1]heptan-1-ylamino)methyl)-2H-pyrido[3,2-b][1,4]oxazin-3(4H)-one]"
10,0.5,"COc1ccc2ncc(Cl)c(/C=C\C34CCC(NCc5ccc6c(n5)NC(=O)CO6)(CC3)CC4)c2n1 [Example 8, (Z)-6-((4-(2-(3-Chloro-6-methoxy-1,5-naphthyridin-4-yl)vinyl)bicyclo[2.2.2]octan-1-ylamino)methyl)-2H-pyrido[3,2-b][1,4]oxazin-3(4H)-one]"
11,0.25,"COc1ccc2ncc(F)c(CCC34CCC(NCc5ccc(N6CCCC6)cn5)(CC3)CO4)c2n1 [Example 63, 1-(2-(3-Fluoro-6-methoxy-1,5-naphthyridin-4-yl)ethyl)-N-((5-(pyrrolidin-1-yl)pyridin-2-yl)methyl)-2-oxabicyclo[2.2.2]octan-4-amine]"
12,0.016,"COc1ccc2ncc(Cl)c(CCC34CCC(NCc5ccc6c(n5)NC(=O)CO6)(CC3)CO4)c2n1.Cl [Example 16, 6-((1-(2-(3-Chloro-6-methoxy-1,5-naphthyridin-4-yl)ethyl)-2-oxabicyclo[2.2.2]octan-4-ylamino)methyl)-2H-pyrido[3,2-b][1,4]oxazin-3(4H)-one Hydrochloride]"
13,0.016,"COc1ccc2ncc(F)c(CCC34CCC(NCc5ccc(C)c(F)c5)(CC3)CO4)c2n1 [Example 59, N-(3-Fluoro-4-methylbenzyl)-1-(2-(3-fluoro-6-methoxy-1,5-naphthyridin-4-yl)ethyl)-2-oxabicyclo[2.2.2]octan-4-amine]"
14,0.5,"O=C1COc2ccc(CNC34CCC(CCc5c(F)cnc6ccc(OC7CC(O)CC(O)C7)nc56)(CC3)OC4)nc2N1 (centres unmarked) [Example 166, 6-({[1-(2-{6-[(3,5-Dihydroxycyclohexyl)oxy]-3-fluoro-1,5-naphthyridin-4-yl}ethyl)-2-oxabicyclo[2.2.2]oct-4-yl]amino}methyl)-2H-pyrido[3,2-b][1,4]oxazin-3(4H)-one]"
15,0.063,"COc1ccc2ncc(F)c(CC(O)C34CCC(NCc5cc6c(cn5)OCC(=O)N6)(CC3)CO4)c2n1 (single isomer, unassigned) [Example 134, 7-((1-(2-(3-Fluoro-6-methoxy-1,5-naphthyridin-4-yl)-1-hydroxyethyl)-2-oxabicyclo[2.2.2]octan-4-ylamino)methyl)-1H-pyrido[3,4-b][1,4]oxazin-2(3H)-one]"
16,0.063,"O=C1COc2ccc(CNC34CCC(CCn5c(=O)ccc6ncc(Cl)cc65)(CC3)OC4)nc2N1 [Example 129, 6-((1-(2-(7-Chloro-2-oxo-1,5-naphthyridin-1(2H)-yl)ethyl)-2-oxabicyclo[2.2.2]octan-4-ylamino)methyl)-2H-pyrido[3,2-b][1,4]oxazin-3(4H)-one]"
17,8,"COc1ccc2ncc(F)c(CCC34CCC(NCc5cccc(C#N)n5)(CC3)CO4)c2n1 [Example 60, 6-(((1-(2-(3-Fluoro-6-methoxy-1,5-naphthyridin-4-yl)ethyl)-2-oxabicyclo[2.2.2]octan-4-yl)amino)methyl)picolinonitrile]"
18,0.25,"COC(=O)c1cnc2ccc(=O)n(CCC34CCC(NCc5ccc6c(n5)NC(=O)CO6)(CC3)CO4)c2c1.Cl [Example 127, Methyl 6-Oxo-5-(2-(4-((3-oxo-3,4-dihydro-2H-pyrido[3,2-b][1,4]oxazin-6-yl)methylamino)-2-oxabicyclo[2.2.2]octan-1-yl)ethyl)-5,6-dihydro-1,5-naphthyridine-3-carboxylate Hydrochloride]"
19,0.125,"COc1ccc2ncc(F)c(CCC34CCC(NCc5cnn(CC(F)F)c5)(CC3)CO4)c2n1 [Example 92, N-((1-(2,2-Difluoroethyl)-1H-pyrazol-4-yl)methyl)-1-(2-(3-fluoro-6-methoxy-1,5-naphthyridin-4-yl)ethyl)-2-oxabicyclo[2.2.2]octan-4-amine]"

# Same assay, conditions: agar dilution, 35° C., 16-20 hr; lowest concentration that completely inhibited growth
row,Structure (SMILES),S_aureus_Smith_WT_MIC [µg/mL]
1,"COc1ccc2ncc(F)c(CC(O)C34CCC(NCc5ccc6c(n5)NC(=O)CO6)(CC3)CO4)c2n1.Cl (single isomer, unassigned) [Example 20b, 6-((1-(2-(3-Fluoro-6-methoxy-1,5-naphthyridin-4-yl)-1-hydroxyethyl)-2-oxabicyclo[2.2.2]octan-4-ylamino)methyl)-2H-pyrido[3,2-b][1,4]oxazin-3(4H)-one Hydrochloride]",0.0630
2,"O=C1COc2ccc(CNC34CCC(C(O)Cn5c(=O)ccc6ncc(F)cc65)(CC3)OC4)nc2N1 (single isomer, unassigned) [Example 55b, 6-((1-(2-(7-fluoro-2-oxo-1,5-naphthyridin-1(2H)-yl)-1-hydroxyethyl)-2-oxabicyclo[2.2.2]octan-4-ylamino)methyl)-2H-pyrido[3,2-b][1,4]oxazin-3(4H)-one]",0.250
3,"COc1ccc2ccc(=O)n(CC(O)C34CCC(NCc5ccc6c(n5)NC(=O)CO6)(CC3)CO4)c2n1 (single isomer, unassigned) [Example 52b, 6-(((1-(1-Hydroxy-2-(7-methoxy-2-oxo-1,8-naphthyridin-1(2H)-yl)ethyl)-2-oxabicyclo[2.2.2]octan-4-yl)amino)methyl)-2H-pyrido[3,2-b][1,4]oxazin-3(4H)-one]",0.0630

# Same assay, conditions: agar dilution, 35° C., 16-20 hr; lowest concentration that completely inhibited growth; Hydrochloride
row,Structure (SMILES),S_aureus_Smith_WT_MIC [µg/mL]
1,"COc1ccc2ncc(F)c(C3OC(=O)OC3C34CCC(NCc5ccc6c(n5)NC(=O)CO6)(CC3)CO4)c2n1.Cl (single isomer, unassigned) [Example 27a, 6-((1-(5-(3-Fluoro-6-methoxy-1,5-naphthyridin-4-yl)-2-oxo-1,3-dioxolan-4-yl)-2-oxabicyclo[2.2.2]octan-4-ylamino)methyl)-2H-pyrido[3,2-b][1,4]oxazin-3(4H)-one Hydrochloride]",0.250
